The results in this text go back to patent US7276484B2, “Dipeptide inhibitors of β-secretase” (Elan Pharmaceuticals, Inc., priority 1999, dated 2007).

Assay [1] has as its target T1, Human brain β-Secretase (Homo sapiens, UniProt P56817).
T1 construct: Human brain β-Secretase from concentrated HiQ pool prepared Jul; from tissue; host or cells: human brain
In words: MBP-C125 enzyme inhibition assay (ELISA detection of β-secretase cleavage of MBP-C125 substrate). Format: biochemical. The conditions noted are these: pH 4.5, 37° C., 90 minutes, read-out: IC50 Grouping. As for the experimental part:
The inhibitory concentration data was obtained by use of the MBP-C125 assay, which determines the relative inhibition of β-secretase cleavage of an MPB-C125 substrate by the compounds assayed. Human brain β-Secretase from concentrated HiQ pool prepared Jul.
Inhibition data was obtained from an ELISA which uses an anti-MBP capture antibody (on precoated and blocked 96-well high binding plates) followed by incubation with diluted enzyme reaction supernatant, incubation with an anti-SW192 specific biotinylated reporter antibody and incubation with streptavidin/alkaline phosphatase. Detection was effected by a fluorescent substrate signal on cleavage by the phosphatase.
Compounds were diluted in a 1:1 dilution series to a six-point concentration curve (two wells per concentration) which took up one 96-plate row per compound tested.
Each of the test compounds was weighed out into a vial and DMSO was added to make up a 10 mM solution. To obtain a final compound concentration of 200 μM at the high point of a 6-point dilution curve, 100 μL of the 10 mM solution was added to well C1 of a 96-well V-bottom plate. Fifty μL of DMSO was added to odd wells of row C across the plate and 1:1 serial dilutions were made. 10 μL of each dilution was added to each of two wells on row C of a corresponding V-bottom plate to which 190 μL of 52 mM NaOAc/7.9% DMSO, pH 4.5 were pre-added. […] The compound concentration in the final enzyme reaction was thus 50 times less than the starting concentration. The final reaction mixture of 200 μM compound for the highest curve point was in 5% DMSO, 20 mM NaAc, 0.06% TX100, at pH 4.5. The enzyme reaction was started by warming the plates to 37° C. After 90 minutes at 37° C., 200 μL/well cold specimen diluent was added to stop the reaction and 20 μL/well was transferred to a corresponding α-MBP coated ELISA plate, containing 80 μL/well specimen diluent. […] The signal was read on a fluorescent plate reader.
(ELISA stands for enzyme-linked immunosorbent assay.)

Another assay deals with β-secretase (Homo sapiens, UniProt P56817). In words: assays with β-secretase (pepstatin remark). Format: biochemical.
In assay [2] the target is Human brain β-Secretase (human, UniProt P56817 46-501, limits assumed). As to the kind of experiment: cell-based or functional assay.

Numbered stars: 1 amine (or outer) side, 2 acyl side, 3 side chain; on linkers, the order of the positions; unused ones are H or OH. Square brackets hold non-standard residues; d marks the D form. Ends that are not written are not given here. Peptide text beside a SMILES is read from it. * marks the point of attachment. 3,5‑difluoroPhe/Sta = 3,5-difluorobenzyl statine, O=C(C[C@H](O)[C@H](Cc1cc(F)cc(F)c1)N[*:1])[*:2]; Sta = CC(C)C[C@H](N)[C@@H](O)CC(=O)O; Isovaleryl = CC(C)CC(=O)* A value given as a limit tells only on which side of the number the result lay.

T1 sequence (P56817 46-501): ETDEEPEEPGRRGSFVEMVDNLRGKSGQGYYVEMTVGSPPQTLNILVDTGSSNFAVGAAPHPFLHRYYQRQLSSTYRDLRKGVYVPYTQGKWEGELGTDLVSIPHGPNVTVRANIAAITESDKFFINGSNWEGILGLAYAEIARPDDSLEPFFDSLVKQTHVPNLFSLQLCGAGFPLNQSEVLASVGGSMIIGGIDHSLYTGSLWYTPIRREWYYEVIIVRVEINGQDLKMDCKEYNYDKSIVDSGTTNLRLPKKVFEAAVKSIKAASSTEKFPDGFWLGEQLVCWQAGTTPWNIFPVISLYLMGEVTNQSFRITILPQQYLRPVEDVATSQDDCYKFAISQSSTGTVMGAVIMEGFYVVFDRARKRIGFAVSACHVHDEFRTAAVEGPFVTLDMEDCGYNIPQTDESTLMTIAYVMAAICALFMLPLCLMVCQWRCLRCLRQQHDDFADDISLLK
Chain of Human brain β-Secretase (human, UniProt P56817 46-501, limits assumed) (P56817 46-501 limits assumed): as the sequence (P56817 46-501) above
Chain of β-secretase (P56817 46-501): as above

“2-carboxy-diphenylether coupled with the peptide 3,5-difluoroPhe/Sta-Val-Ala-Glu-Phe [Example 29]”: at Human brain β-Secretase [1], the IC50 (in general, the concentration needed to halve the response being measured) is under 10 µM.
On the same count and under the same terms, with “4-carboxycinnoline coupled to the 3,5-difluoroPhe/Sta-Val-Ala-Glu-Phe [Example 44]” the figure was 10 to 99 µM.
As to `COC(=O)c1cccc(C(=O)N[C@@H](Cc2cc(F)cc(F)c2)[C@@H](O)CC(=O)N[C@H](C(=O)NC2CC(C(=O)O)C[C@H](C(=O)O)C2)C(C)C)c1` (some centres unmarked) [Example 39], at Human brain β-Secretase [1], the IC50 is under 10 µM.
For the molecule `CCCN(CCC)C(=O)c1cccc(CNC(Cc2cc(F)cc(F)c2)C(O)CC(=O)NC(C(=O)NC2CC(C(=O)O)CC(C(=O)O)C2)C(C)C)c1` (stereo not drawn) [Example 54, 3-N,N-di-n-propyl-carboxamidobenzyl-difluorophenylstatine-Val-1-amino-3,5-cis,cis-cyclohexyldicarboxylic acid], the IC50 on Human brain β-Secretase [1] is under 10 µM.
For the molecule `CC(C)CC(=O)N[C@H](C(=O)N[C@H](C(=O)N[C@@H](CC(C)C)[C@@H](O)CC(=O)N[C@@H](C)C(=O)N[C@@H](CC(C)C)[C@@H](O)CC(=O)O)C(C)C)C(C)C` [pepstatin] (Isovaleryl-VV[Sta]A[Sta]-OH), the “inhibitory activity in assays with β-secretase” value against β-secretase is “no inhibitory activity”.
As to “geminal dimethyl glutaric dimethylamide group coupled to the derivatized Sta-Val-Ala-Glu-Phe pentapeptide [Example 32]”, the IC50 on Human brain β-Secretase [1] is 10 to 99 µM.
On the same count and under the same terms, for “glutaric acid piperidine amide coupled with the derivatized Sta-Val-Ala-Glu-Phe pentapeptide [Example 33]” the value was 10 to 99 µM.

B1: Example 29: 2-carboxy-diphenylether coupled with the peptide 3,5-difluoroPhe/Sta-Val-Ala-Glu-Phe (peptide)
peptide: {2‑carboxy‑diphenylether}-[3,5‑difluoroPhe/Sta]VAEF
Take B1: the “IC50 Grouping (MBP-C125 enzyme inhibition assay, ELISA read-out)” value with Human brain β-Secretase [2] is under 10 µM.
